# Earlier results as cited in patent publication US20230000758A1, “METHOD FOR PREVENTING SKIN AGING COMPRISING KOREAN MINT EXTRACT” (COSMAX NBT, INC., priority 2021, published 2023).
# Tested on: catalase
# Details: lipopolysaccharide-stimulated mouse lung tissues
smiles,measurement,value
COc1ccc(-c2cc(=O)c3c(O)cc(O[C@@H]4O[C@H](CO[C@@H]5O[C@@H](C)[C@H](O)[C@@H](O)[C@H]5O)[C@@H](O)[C@H](O)[C@H]4O)cc3o2)cc1 [linarin],expression of the anti-oxidant enzyme catalase,markedly increased
